Test results as given in PubChem BioAssay AID248 (DTP/NCI, 2004).
“And” between values parts separate entries of the source, which are not always exact repeats. Equal entries are not always repeated. Inconclusive results and toxic doses are left out.

Test system: L1210 leukemia ip in BDF1 mice, survival T/C
Test: NCI In Vivo Anticancer Drug Screen. Data for tumor model L1210 Leukemia (intraperitoneal) in B6D2F1 (BDF1) mice
Details: endpoint: mean survival time, higher = longer survival
Method in brief: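 Survival endpoint. Drug-treated group vs vehicle group, expressed as T divided by C. Tumor passaged by transplantation.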

[1] = dose: 100.0 mg/kg/injection, schedule: Q01DX009 (ip), vehicle: saline
[2] = dose: 50.0 mg/kg/injection, schedule: Q04DX003 (ip), vehicle: saline with Tween-80
[3] = dose: 100.0 mg/kg/injection, schedule: Q04DX003 (ip), vehicle: saline with Tween-80
[4] = dose: 100.0 mg/kg/injection, schedule: Q01DX009 (ip), vehicle: Klucel (hydroxypropylcellulose) (HPC)
[5] = dose: 100.0 mg/kg/injection, schedule: Q04DX003 (ip), vehicle: Klucel (hydroxypropylcellulose) (HPC)
[6] = dose: 200.0 mg/kg/injection, schedule: Q01DX009 (ip), vehicle: Klucel (hydroxypropylcellulose) (HPC)
[7] = dose: 200.0 mg/kg/injection, schedule: Q04DX003 (ip), vehicle: Klucel (hydroxypropylcellulose) (HPC)
[8] = dose: 400.0 mg/kg/injection, schedule: Q04DX003 (ip), vehicle: Klucel (hydroxypropylcellulose) (HPC)
[9] = dose: 100.0 mg/kg/injection, schedule: Q01DX001 (ip), vehicle: carboxymethylcellulose (CMC)
[10] = dose: 200.0 mg/kg/injection, schedule: Q01DX001 (ip), vehicle: carboxymethylcellulose (CMC)
[11] = dose: 400.0 mg/kg/injection, schedule: Q01DX001 (ip), vehicle: carboxymethylcellulose (CMC)

## OCc1ccn2c1[C@@H](O)CC2
dose: 6.25 mg/kg/injection, schedule: Q01DX009 (ip), vehicle: saline
  T/C: 107 % of control
dose: 12.5 mg/kg/injection, schedule: Q01DX009 (ip), vehicle: acetone
  T/C: 100 % of control
dose: 12.5 mg/kg/injection, schedule: Q01DX009 (ip), vehicle: saline
  T/C: 96 % of control
dose: 25.0 mg/kg/injection, schedule: Q01DX001 (ip), vehicle: saline
  T/C: 101 % of control and 107 % of control
dose: 25.0 mg/kg/injection, schedule: Q01DX009 (ip), vehicle: acetone
  T/C: 111 % of control
dose: 25.0 mg/kg/injection, schedule: Q01DX009 (ip), vehicle: saline
  T/C: 110 % of control
dose: 50.0 mg/kg/injection, schedule: Q01DX001 (ip), vehicle: saline
  T/C: 112 % of control
dose: 50.0 mg/kg/injection, schedule: Q01DX009 (ip), vehicle: saline
  T/C: 153 % of control
[1]
  T/C: 121 % of control and 89 % of control
dose: 200.0 mg/kg/injection, schedule: Q01DX001 (ip), vehicle: saline
  T/C: 112 % of control

## CCC(CO)NC(=O)Nc1cccc2ccccc12 (stereo unspecified)
[2]
  T/C: 105 % of control
dose: 100.0 mg/kg/injection, schedule: Q01DX009 (ip), vehicle: saline with Tween-80
  T/C: 102 % of control
[3]
  T/C: 105 % of control
dose: 200.0 mg/kg/injection, schedule: Q01DX009 (ip), vehicle: saline with Tween-80
  T/C: 96 % of control
dose: 200.0 mg/kg/injection, schedule: Q04DX003 (ip), vehicle: saline with Tween-80
  T/C: 100 % of control
dose: 400.0 mg/kg/injection, schedule: Q01DX009 (ip), vehicle: saline with Tween-80
  T/C: 96 % of control
dose: 400.0 mg/kg/injection, schedule: Q04DX003 (ip), vehicle: saline with Tween-80
  T/C: 94 % of control

## O=C1/C(=N/O)Cc2ccccc21
dose: 3.13 mg/kg/injection, schedule: Q01DX009 (ip), vehicle: saline with Tween-80
  T/C: 91 % of control
dose: 6.25 mg/kg/injection, schedule: Q01DX009 (ip), vehicle: saline with Tween-80
  T/C: 91 % of control
dose: 12.5 mg/kg/injection, schedule: Q01DX009 (ip), vehicle: saline with Tween-80
  T/C: 94 % of control
dose: 25.0 mg/kg/injection, schedule: Q04DX003 (ip), vehicle: saline with Tween-80
  T/C: 102 % of control
[2]
  T/C: 94 % of control

## Cc1cc(/C=C\c2ccccc2Cl)nc2cc(Cl)ccc12
dose: 100.0 mg/kg/injection, schedule: Q04DX003 (ip), vehicle: saline
  T/C: 102 % of control
dose: 200.0 mg/kg/injection, schedule: Q04DX003 (ip), vehicle: saline
  T/C: 98 % of control
dose: 400.0 mg/kg/injection, schedule: Q04DX003 (ip), vehicle: saline
  T/C: 102 % of control

## O=C(O)CCC(=O)CC[N+](=O)[O-]
dose: 75.0 mg/kg/injection, schedule: Q01DX001 (ip), vehicle: saline
  T/C: 94 % of control
dose: 150.0 mg/kg/injection, schedule: Q01DX001 (ip), vehicle: saline
  T/C: 97 % of control

## [Si]c1ccc(-c2ccccc2)cc1
dose: 25.6 mg/kg/injection, schedule: Q04DX002 (ip), vehicle: saline with Tween-80
  T/C: 101 % of control
dose: 64.0 mg/kg/injection, schedule: Q04DX002 (ip), vehicle: saline with Tween-80
  T/C: 97 % of control
[3]
  T/C: 87 % of control
dose: 160.0 mg/kg/injection, schedule: Q04DX002 (ip), vehicle: saline with Tween-80
  T/C: 87 % of control
dose: 400.0 mg/kg/injection, schedule: Q04DX002 (ip), vehicle: saline with Tween-80
  T/C: 90 % of control

## CC(=O)Nc1ccc(N=C(N)c2ccc(C(N)=Nc3ccc(NC(C)=O)cc3)cc2)cc1
dose: 62.0 mg/kg/injection, schedule: Q01DX015 (ip), vehicle: methylcellulose (MC)
  T/C: 98 % of control
dose: 125.0 mg/kg/injection, schedule: Q01DX015 (ip), vehicle: methylcellulose (MC)
  T/C: 86 % of control
dose: 250.0 mg/kg/injection, schedule: Q01DX015 (ip), vehicle: methylcellulose (MC)
  T/C: 91 % of control
dose: 500.0 mg/kg/injection, schedule: Q01DX015 (ip), vehicle: methylcellulose (MC)
  T/C: 86 % of control

## CCCC1OC(=O)C(C)O1 (stereo unspecified)
[4]
  T/C: 94 % of control
[5]
  T/C: 105 % of control
[6]
  T/C: 97 % of control
[7]
  T/C: 100 % of control
[8]
  T/C: 103 % of control

## O=C(/C=C/c1ccc2c(c1)OCO2)c1ccccc1
dose: 50.0 mg/kg/injection, schedule: Q01DX009 (ip), vehicle: Klucel (hydroxypropylcellulose) (HPC)
  T/C: 97 % of control
[4]
  T/C: 103 % of control
[5]
  T/C: 102 % of control
[6]
  T/C: 106 % of control
[7]
  T/C: 93 % of control
dose: 400.0 mg/kg/injection, schedule: Q01DX009 (ip), vehicle: Klucel (hydroxypropylcellulose) (HPC)
  T/C: 103 % of control
[8]
  T/C: 98 % of control

## Cc1ccc(-c2cc(=S)ss2)cc1
[9]
  T/C: 100 % of control
[10]
  T/C: 92 % of control
[11]
  T/C: 94 % of control

## O=[N+]([O-])c1cccc(N=Cc2ccc3c(c2)OCO3)c1
[1]
  T/C: 96 % of control
dose: 200.0 mg/kg/injection, schedule: Q01DX009 (ip), vehicle: saline
  T/C: 93 % of control
dose: 400.0 mg/kg/injection, schedule: Q01DX009 (ip), vehicle: saline
  T/C: 100 % of control

## CCN(CC)CCC(=O)OC(c1ccccc1)C1(O)CCSC1 (stereo unspecified)
[5]
  T/C: 106 % of control
[7]
  T/C: 96 % of control

## COC1CC(OC(=O)c2ccc([N+](=O)[O-])cc2)C(OC(=O)c2ccc([N+](=O)[O-])cc2)C(C)O1 (stereo unspecified)
[9]
  T/C: 93 % of control
[10]
  T/C: 102 % of control
[11]
  T/C: 88 % of control

## Cc1c2ccncc2c(C)c2c1oc1ccccc12
dose: 200.0 mg/kg/injection, schedule: Q01DX009 (ip), vehicle: other
  T/C: 91 % of control
dose: 400.0 mg/kg/injection, schedule: Q01DX009 (ip), vehicle: other
  T/C: 95 % of control
